Consider two substances from US11254716B2, “Peptides for binding epidermal growth factor” (3M INNOVATIVE PROPERTIES COMPANY, priority 2016, dated 2022).

A word on the Kd: it is the free concentration of one partner at which half of the binding sites on the other are occupied at equilibrium, for simple one-to-one binding.

The target of experiment [1] is T1, EGF (Homo sapiens, UniProt P01133). Kind of experiment: biochemical. The following applies: binding affinity (KD) for EGF, CK-linker modified peptide immobilized on CM5 chip, Biacore 3000, 25° C., EGF 62.5-1000 nM, 1-to-1 Langmuir fit. Background: SPR reads the build-up and loss of mass on a sensor chip optically.
Protocol: “Test Method A” refers to the following general surface plasmon resonance (SPR) binding assay. Target protein (e.g., EGF and tumor necrosis factor alpha (TNFα)) is immobilized at 25° C. and diluted peptides are injected for 3 min at a flow rate of 10 μl/min at 25° C.
The immobilization was performed at 25° C. using HBS-EP as the running buffer. The CM-dextran surfaces of the sensor chip flow cells were activated by a seven minute injection (20 microliters/minute) of freshly prepared 1:1 50 mM NHS: 200 mM EDC. […] The coupling step was followed by a seven minute injection (20 microliters/minute) of ethanolamine hydrochloride-NaOH (1M, pH 8.5) which deactivated residual reactive sites.
The kinetic analysis for EGF was performed at 25° C. The EGF was diluted in HBS-EP buffer and centrifuged at 14,000 rpm for five minutes at 4° C. Individual test samples of EGF at various concentrations (62.5, 125, 250, 500 and 1000 nM) were injected for three minutes at a flow rate of 10 microliters/minute. The surface was regenerated by injection of 10 microliters of glycine-HCl in water (20 mM, pH 2.5).
The data analysis was carried out using the BIA Evaluation Software Kit obtained from GE Healthcare Bio-Sciences Corporation. The assay data fitted 1-to-1 Langmuir using global curve fitting analysis.
The target of experiment [2] is T2, TNF-α (Homo sapiens, UniProt P01375).
T2 construct: purchased Abcam plc, Cambridge, Mass
Kind of experiment: Surface plasmon resonance (SPR) binding assay (Test Method A), TNF-α. The conditions noted are these: CK-linker modified peptide immobilized on CM5 chip, Biacore 3000, 25° C., TNF-α 62.5-1000 nM, 1-to-1 Langmuir fit; read-out: binding affinity (KD) for TNF-α.

The target in experiment [3] is T1, EGF. Nature of the experiment: Dot blotting analysis of biotinylated peptide with membrane-spotted EGF. Type of experiment: binding. More on the design: Recombinant Human Epidermal Growth Factor (EGF); purchased Abcam plc, Cambridge, Mass. The following applies: EGF 10 nM spotted; biotinylated peptide 10 ng/mL; Streptavidin-HRP, TMB. Here is the method:
EGF (1 microliter of a 10 nM solution in PBS was spotted a nitrocellulose membrane (obtained from Thermo Fisher Scientific) and the membrane was dried in air for about 30 minutes. The membrane was then incubated in 15 mL of blocking buffer (3 wt. % BSA in PBS) for one hour at room temperature. The membrane was washed three times (15 minutes for each wash) with 15 mL portions of fresh PBST. The washed membrane was incubated with Biotinylated SEQ ID NO: 1 [10 mL of a 10 ng/mL solution in blocking buffer (3 wt. % BSA in PBS)] with gentle agitation for one hour. The membrane was again washed three times (15 minutes for each wash) with 15 mL portions of fresh PBST. The washed membrane was incubated with Streptavidin-HRP [1:5000 dilution in 10 mL of the blocking buffer (3 wt. % BSA in PBS)] for 30 minutes with gentle agitation. Following the incubation, the membrane was washed three times (15 minutes for each wash) with 15 mL portions of fresh PBST. The washed membrane was incubated with 10 mL of the development solution for horseradish peroxidase (TMB-Blotting Substrate Solution, Pierce-Fisher Scientific) with gentle agitation. The color development was stopped by adding water.

Where no end group is shown, it is not given here.

T1 sequence (P01133 971-1023 limits assumed): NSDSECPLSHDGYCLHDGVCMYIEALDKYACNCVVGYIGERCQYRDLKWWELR
T2 sequence (P01375 77-233 limits assumed): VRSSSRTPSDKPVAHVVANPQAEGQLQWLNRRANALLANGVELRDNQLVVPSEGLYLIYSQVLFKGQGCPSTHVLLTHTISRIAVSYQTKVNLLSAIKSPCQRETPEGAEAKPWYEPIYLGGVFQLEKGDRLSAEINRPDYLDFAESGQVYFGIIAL

Regarding “Ac-WFEWPYWEMNVPDVWN-NH2 [SEQ ID NO: 1, WFEWPYWEMNVPDVWN]”, the Kd in experiment [1] was found to be 0.08 µM; in experiment [2], 75 µM. As for “Biotinylated SEQ ID NO: 1: Biotinylated version of peptide SEQ ID NO: 1 (WFEWPYWEMNVPDVWN; also: biotinylated, site not given here)”, the “dot blot colour development at EGF application site (affinity for EGF)” value in experiment [3] is given as “A dark spot developed”.
